Measurements as given in patent US7635722B1, “Chemical induced intracellular hyperthermia” (priority 1998, dated 2009).

What was measured:
Assay type in all cases: in vivo, human
[1] = tested on: metastatic, hormone-refractory prostate carcinoma; assay: DNP with methylene blue, prostate carcinoma (Example 9)
Description: Pretreatment protocol: the patient was transfused with 2 units of packed red blood cells 48 hours prior to undergoing treatment. Intravenous fluids (Lactated Ringer's solution) were administered at a rate of 100 cc/hour. The patient was dressed in comfortable cotton clothing and placed in an air-conditioned room. Equipment for monitoring heart rate and rhythm, temperature and oxygen consumption was utilized as outlined in Example 1. An oral breathing tube was used to conduct TEEM VO2 measurements. Oxygen supplementation and “crash cart” was available at bedside.
Treatment protocol: baseline VO2 measurements for 8 minutes established an average VO2 of 250 cc/minute. DNP, at a dose of 2 mg/kg, was infused intravenously over a 2 minute period. Repeat VO2 at 20 minutes was stabilized at 340-360 cc/minute. An additional 1 mg/kg DNP infusion was administered, and 15 minutes thereafter the VO2 increased and stabilized at 420 cc/minute. Ten minutes thereafter, an infusion of methylene blue, 2 mg/kg (dissolved in a […] pyrogen-free isotonic saline solution-35 ml) was administered over 20 minutes.
By hour 3, VO2 declined to the 360-380 cc/minute range. An additional 1 mg/kg dose of DNP was infused over a 2 minute period. […] Rectal probe temperature increased to a maximum of 1.3° C. over baseline. […] The protocol was repeated every other day for a total of 15 treatments (30 days). Therapy was discontinued for 2 weeks and the cycle was again repeated for an additional 30 days, treatment being administered every other day.

[2] = tested on: Echinococcus multilocularis; assay: DNP with glucagon, hydatid disease of the liver (Example 1)
Description: Pretreatment protocol: the patient was given 10 mg diazepam by mouth and dressed into a modified wet suit. The wet suit was cut lengthwise at the arms and legs. Velcro strappings were attached at the cuttings for closure, rapid removal or exposure of the limb(s). After placement of monitoring sensors, they were started on IV fluids of 5% dextrose, 0.5 normal saline with 7 meq K^+, infused at an initial rate of 12 cc/kg/hr. Evaporative heat loss from the head was minimized by a plastic shower cap and towels. A 401AC temperature probe (YSI Incorporated, Yellow Springs, Ohio) was inserted 11 cm. into the rectum. […] A TEEM 100 Metabolic Analysis System (AeroSport Inc., Ann Arbor, Mich.), with a modified face mask and oxygen delivery system (38-40% 02 saturation) for patient comfort and increased accuracy, was attached to the patient. Oxygen consumption (V02), carbon dioxide production (VC02), expired air volume (VE), heart rate (HR), and Kcal of heat produced were measured in 20 second intervals and extrapolated to minute or hourly rates.
Treatment procedure: After baseline recordings of 10 minutes, the required amount of DNP to raise the initial V02 to achieve a temperature in the patient of 40° C. was calculated as described under “DNP dosage required to increase V02”. The patient was given an initial dose of 1 mg/kg of DNP, infused intravenously over a 3 minute period. […]

candida = assay: DNP hyperthermia, oral candidiasis (Example 2)
Description: Pretreatment protocol: all medications were stopped 2 weeks prior to treatment. The patient refused taking diazepam, placement of a Foley catheter and oxygen face mask. They dressed themself into a dry cold water immersion suit (Stearns, ISS-590I, Universal Adult) designed to prevent heat loss and modified for easy placement of physiologic monitors. Equipment for measurement of heart rate, temperature, carbon dioxide production and Kcal of heat produced were conducted as outlined in Example 1. An oral breathing tube was used to measure V02 from room air. Urine output was measured when the patient voluntarily urinated through a “Texas” catheter (superficial condom tightly fitted around the head of the penis with tubing connected to urine collection bag). The patient was informed that hyperthermia would be administered as tolerated by their stamina and monitored clinical parameters, not to exceed 5 hours, on a daily or every other day basis, for a total of 5 sessions.
Treatment procedure: Baseline reading for 5 minutes established an average V02 of 300 cc/min. An initial dose of 2 mg/kg of DNP was administered over a 2 minute period. V02 increased and stabilized at 15 minutes at 340-380 cc/min. An additional 2 mg/kg DNP infusion was given, the V02 increased and stabilized at 610-630 cc/min. […]

breast lesion = assay: DNP enhanced infrared imaging, breast carcinoma (Example 8)
Description: Prediagnostic protocol: the patient was disrobed to the waist and sat with their hands interlocked over their head for a five minute equilibration period in a draft free, thermally controlled room—kept between 18° C. and 20° C. […] A baseline of 4 images consisting of an anterior, undersurface and 2 lateral views of each breast were generated by an integrated infrared imaging station consisting of a scanning mirror optical system containing a mercury-cadmium-telluride detector (Bales Scientific, CA). […] Images were stored on retrievable laser discs.
Diagnostic treatment protocol: after the above baseline studies were performed, the patient was given an initial intravenous dose of 1 mg/kg DNP and observed for a period of 20 minutes. An additional 2 mg/kg of DNP was then administered and 30 minutes thereafter, they were taken to the thermally controlled room for repeat DNP-enhanced infrared imaging. […] Repeat infrared images were then obtained under the exact protocol used for obtaining baseline studies.

O=[N+]([O-])c1ccc(O)c([N+](=O)[O-])c1 [DNP, 2,4-dinitrophenol]
bone pain ([1]; 6th day following therapy, DNP with methylene blue): decrease in their low back, hip and other areas of bone pain | PSA values ([1]; 6 weeks after treatment): 30 ng/mL | tumor necrotic on prostatic biopsy ([1]; 10 weeks after initiation of treatment): 95% | analgesic use ([1]; by 2 weeks): off all narcotic (morphine) analgesics | acid phosphatase ([1]; day 8): remained unchanged | increase in PSA level ([1]; day 8): approximately 120% | PSA level ([1]; day 8, pretreatment 58 ng/ml): 125 ng/mL | repeat prostate biopsy ([1]; end of month 4, oral DNP 250 mg twice a day after IV therapy): very few intact acini or viable acinar cells | weight gained ([1]; three months after initiation of therapy): 8.2 kg | serial imaging of hepatic and bone cysts ([2]; 2 and 4 weeks post treatment): hepatic and bone cyst shrinkage with increased density | magnetic resonance imaging of cysts ([2]; 4 months): complete cyst disappearance in the liver and bone | oral candidiasis (candida; 3rd day of therapy): no evidence of oral candidiasis | improvement of oral candidiasis (candida; immediately after the first treatment): 50% | bilateral global breast temperature increase (breast lesion; DNP enhanced infrared imaging): approximately 0.5 °C | increase in temperature in the palpable right breast lesion (breast lesion; DNP enhanced infrared imaging): 2.5 °C | increase in heat production above the DNP baseline increase (breast lesion; lesion versus global breast increase of 0.5° C.): 5 fold
